# Positions of bridges follow the written chain, without caps; N, C: chain ends. Non-standard residues stand in square brackets, D forms with d. Residues, ends and D or L forms follow the SMILES beside them. R8 = C=CCCCCCC[C@@](C)(N)C(=O)O; S5 = C=CCCC[C@](C)(N)C(=O)O
# How the values were obtained:
# [1] = CD spectroscopy and CD thermal denaturation; type: physicochemical; conditions: 210 nm, 25° until 90°C, ddH2O
# Method: CD spectroscopy data were collected on a Jasco J-710 spectropolarimeter. A total of 0.2 or 0.05 mg/ml of LP^18–28 or SP^18–28 in ddH2O was measured with a 1-mm path length cuvette. CD spectra were recorded at 0.5-nm intervals between 190 and 260 nm at 25°C. CD thermal denaturation data were recorded at 210 nm at 0.2°C intervals starting at 25° until 90°C.
# HeLa cells = assay: Clonogenic survival assay; type: cell-based; conditions: 10 μM, fig. S7A
# Method: (§1) Two hundred cells per well were seeded into poly-L-lysine (Sigma-Aldrich)–coated 24-well plates and the next day treated with respective drugs (CPT, Sigma-Aldrich; olaparib, Selleck Chemicals) and peptides (total volume: 300 μl per well). For details, see figure legends. After 10 days of growth, cells were fixed with crystal violet solution [0.5% crystal violet and 20% ethanol (w/v)]. Plates were scanned, and survival was analyzed with the ImageJ plugin Colony Area using the parameter colony intensity as readout ([47]).
# MCF10A = assay: Clonogenic survival assay; type: cell-based; conditions: 10 μM peptide 24 hours, 10 days growth; BRCA1 wt nontumorigenic cell line
# Method: as §1
# MCF7 = assay: Clonogenic survival assay; type: cell-based; conditions: 10 μM peptide 24 hours, 10 days growth; BRCA1 wt breast cancer cell line
# Method: as §1
# RPE1 = assay: Clonogenic survival assay; type: cell-based; conditions: 10 μM peptide 24 hours, 10 days growth; BRCA1 wt nontumorigenic cell line
# Method: as §1
# U2OS cells = assay: EdU incorporation, cell cycle distribution and cell proliferation; type: cell-based; conditions: fig. S5, E and F; proliferation at 5 μM
# Method: HeLa cells were seeded into six-well plates and incubated with peptides in a volume of 2 ml for varying time points. Cells were harvested by trypsinization, washed, and resuspended in PBS before subjecting them to flow cytometry analysis. FITC intensity was measured with an Attune Nxt flow cytometer equipped with a 488-nm laser and 530/30 band-pass filter. Analysis of 5-Ethynyl-2′-deoxyuridine (EdU) incorporation was carried out using the Click-iT EdU technology (Thermo Fisher Scientific) as described in the manufacturer’s instructions. A minimum of 20,000 events were recorded.
# A total of 125 and 250 U2OS cells were seeded in triplicates in 96-well plates in a volume of 90 μl. Twenty-four hours after seeding, 10 μl of medium only or medium with the indicated peptides was added to the wells reaching a final peptide concentration of 5 μM. Cell proliferation was monitored using a CellTiter-Blue–based (Promega) approach at specific time points (0, 2, 5, and 7 days after peptide treatment). In brief, 20-μl CellTiter-Blue reagent (Promega) was added to the wells, incubated for 4 hours, and fluorescence intensity was measured at 560/590 nm using a SpectraMax M5 microplate reader (Molecular Devices).
# full-length CtIP-wt = molecular target: T1, full-length CtIP-wt (Homo sapiens, UniProt Q99708); assay: Blue native PAGE of full-length CtIP incubated with peptides; type: biochemical; conditions: 1- to 32-fold molar excess SP^18–28, 32-fold LP^18–28, 30 min RT
# T1 construct: Full-length CtIP was purified according to ([14]); 3xFLAG; made in house
# T1 sequence (Q99708 whole entry): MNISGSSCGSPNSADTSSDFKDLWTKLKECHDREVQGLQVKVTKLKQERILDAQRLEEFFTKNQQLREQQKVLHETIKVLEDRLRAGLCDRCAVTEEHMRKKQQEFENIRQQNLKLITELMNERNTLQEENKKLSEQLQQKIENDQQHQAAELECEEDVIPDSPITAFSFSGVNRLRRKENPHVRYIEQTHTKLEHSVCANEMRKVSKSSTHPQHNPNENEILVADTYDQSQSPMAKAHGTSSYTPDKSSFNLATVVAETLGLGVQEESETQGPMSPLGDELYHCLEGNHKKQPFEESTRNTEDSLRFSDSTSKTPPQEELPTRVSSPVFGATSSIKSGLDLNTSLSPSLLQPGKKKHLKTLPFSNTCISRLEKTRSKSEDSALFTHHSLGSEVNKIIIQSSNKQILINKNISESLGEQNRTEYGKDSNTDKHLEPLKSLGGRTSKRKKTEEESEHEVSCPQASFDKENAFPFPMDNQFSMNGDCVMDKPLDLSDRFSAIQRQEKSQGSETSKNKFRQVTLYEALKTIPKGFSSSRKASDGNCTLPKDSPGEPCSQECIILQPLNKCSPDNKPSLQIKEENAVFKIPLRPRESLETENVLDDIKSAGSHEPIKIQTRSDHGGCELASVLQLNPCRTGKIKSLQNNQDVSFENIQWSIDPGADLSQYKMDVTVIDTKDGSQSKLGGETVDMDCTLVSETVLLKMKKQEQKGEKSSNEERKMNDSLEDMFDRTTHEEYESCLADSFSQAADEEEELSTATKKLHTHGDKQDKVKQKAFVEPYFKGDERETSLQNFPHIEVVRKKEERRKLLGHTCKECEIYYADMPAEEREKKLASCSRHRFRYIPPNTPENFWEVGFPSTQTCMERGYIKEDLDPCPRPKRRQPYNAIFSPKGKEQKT
# Method: Reactions were assembled in a volume of 10 μl with a 1.5 μM final concentration of CtIP and either 0, 1.5, 3, 6, 12, 24, or 48 μM LP/SP^18–28 in buffer A [10 mM tris (pH 8.0), 25 mM NaCl, 5% glycerol, and 0.5 mM dithiothreitol (DTT)] and 1× Blue Native Loading buffer [50 mM bis-tris (pH 7.2), 6 N HCl, 50 mM NaCl, 10% (w/v) glycerol, and 0.001% Ponceau S]. After incubation for 30 min at RT, samples were loaded onto a NativePAGE Novex 3 to 12% bis-tris gel (Invitrogen) and run at 150 V for 75 min. Gels were fixed in 40% methanol (MeOH) and 10% acetic acid and destained with 8% acetic acid.
# U2OS^GFP-CtIP-wt = assay: Laser microirradiation, GFP-CtIP recruitment to γH2AX-decorated laser stripes; type: cell-based; conditions: 10 μM peptide, 24 hours, fixed 30 min after microirradiation; n = 4
# Method: Laser microirradiation was carried out as described previously ([25]). Briefly, cells were grown in 10 μM 5-bromo-2′-deoxyuridine (BrdU) for 24 hours before irradiation. Laser microirradiation was performed using a MMI CELLCUT system containing an ultraviolet (UV) A laser of 355 nm. Energy output was set to 50%, and each cell was exposed to laser beam for <300 ms. Cells were released for 30 min before fixation in 4% formaldehyde (w/v) in PBS for 15 min and permeabilization with 0.5% Triton X-100 (w/v) in PBS for 5 min at RT. After blocking with 3% FCS (w/v) in PBS for 1 hour, cells were stained with primary antibodies (table S3) for 2 hours. Staining with secondary antibodies (table S3) was performed for 1 hour. Coverslips were mounted with Vectashield supplemented with DAPI (4′,6-diamidino-2-phenylindole; Vector Laboratories), and images were acquired on a Leica DM6, 63× objective. For CtIP foci analyses, cells were fixed in 4% formaldehyde (w/v) in PBS for 15 min before permeabilization with 0.5% Triton X-100 (w/v) in PBS for 5 min at RT. A blocking step with 3% FCS (w/v) in PBS for 1 hour was followed by primary (2-hour) and secondary (1-hour) staining at RT.
# U2OS EGFP-HR = assay: HR reporter assay; type: cell-based; conditions: 10 μM peptide, 24 hours; GFP-positive cells by flow cytometry; n = 4
# Method: HR reporter assay was performed as described previously ([45], [46]). Briefly, U2OS EGFP-HR were seeded into a 12-well plate and the day after transfected with pCBA I-SceI expression plasmid using jetPRIME transfection reagent (Polyplus). Four hours later, medium was exchanged, and cells were incubated with peptides for 24 hours in 1-ml total volume. Twenty-four hours later, medium was replaced, and cells were harvested 48 hours after I-SceI transfection. A-EJ reporter assay was performed according to ([10]) with some minor modifications. Specifically, U2OS EGFP-aEJ were seeded into six-well plates and siRNA transfected. Six hours later, cells were transfected with I-SceI expression plasmid (pCBA) using Fugene 6 (Promega). Medium was exchanged 24 hours after and replaced with 2-ml fresh medium and the peptides (10 μM). Twenty-four hours later, medium was again replaced with fresh medium without peptides, and 72 hours after I-SceI transfection, cells were harvested. GFP expression (readout for HR and a-EJ frequency) was measured by flow cytometry using the Attune Nxt flow cytometer equipped with a 488-nm laser and 530/30 band-pass filter. A minimum of 20,000 events were recorded.
Compound,heat stability of secondary structure (CD thermal denaturation) [1],tolerability of acute peptide treatment (clonogenic) (HeLa cells; acute (24-hour) treatment),cytotoxicity of chronic peptide treatment on its own (clonogenic) (HeLa cells; prolonged chronic treatment),cell survival (clonogenic) (MCF10A),cell survival (clonogenic) (MCF7),cell survival (clonogenic) (RPE1),"bulk DNA replication, cell cycle distribution and cell proliferation (U2OS cells)",effect on CtIP-wt oligomeric state (full-length CtIP-wt),CtIP recruitment to γH2AX-decorated laser stripes (U2OS^GFP-CtIP-wt),HR frequency of I-SceI–induced DSBs (U2OS EGFP-HR)
CC(=O)N[C@@H](CO)C(=O)N[C@]1(C)CCCCCCC=CCCC[C@@](C)(C(=O)N[C@@H](CC(C)C)C(=O)N[C@@H](CCCCN)C(N)=O)NC(=O)[C@H]([C@@H](C)O)NC(=O)[C@H](Cc2c[nH]c3ccccc23)NC(=O)[C@H](CC(C)C)NC(=O)[C@H](CC(=O)O)NC(=O)[C@H](CCCCN)NC(=O)[C@H](Cc2ccccc2)NC1=O [SP^18–28] (Ac-S[R8]FKDLWT[S5]LK-NH2; staple 2-9),no unfolding could be observed at temperatures of up to 90 °C,well tolerated,extreme cytotoxicity,did not perceive a negative impact on cell survival,did not perceive a negative impact on cell survival,did not perceive a negative impact on cell survival,neither interferes with bulk DNA replication nor causes any significant changes in cell cycle distribution and cell proliferation,–,–,–
Ac-SDFKDLWTKLK-NH2 [LP^18–28],–,–,–,–,–,–,–,no apparent structural changes,no significant effect,no measurable impact

# Reference: publication PMC7895427, “A stapled peptide mimetic of the CtIP tetramerization motif interferes with double-strand break repair and replication fork protection” (Science Advances, 2021)
